Target: High affinity nerve growth factor receptor (Homo sapiens, UniProt P04629)
Assay: Kinase Binding Assay: TrkA binding activity was determined in a TrkA LanthaScreen™ Eu Kinase Binding Assay. 5 nM His-tagged recombinant human TrkA (6HIS tagged cytoplasmic domain from Invitrogen, Catalog No. PV3144) was incubated with 4 nM Alexa-Fluor® Tracer 236 (Invitrogen Cat. No. PV5592), 2 nM biotinylated anti-His (Invitrogen Cat. No. PV6090), and 2 nM europium-labeled Streptavidin (Invitrogen Cat. No. PV5899), in buffer (25 mM MOPS, pH 7.5, 5 mM MgCl2, 0.005% Triton X-100). Three fold serial dilutions of compounds of the invention in DMSO were added to a final percentage of 2% DMSO. After 60-minute incubation at 22° C., the reaction was measured using the EnVision mutlimode plate reader (PerkinElmer) via TR-FRET dual wavelength detection at […]. The percent of control was calculated using a ratiometric emission factor.

Sequence of High affinity nerve growth factor receptor (P04629 whole entry, the tested form may be a part): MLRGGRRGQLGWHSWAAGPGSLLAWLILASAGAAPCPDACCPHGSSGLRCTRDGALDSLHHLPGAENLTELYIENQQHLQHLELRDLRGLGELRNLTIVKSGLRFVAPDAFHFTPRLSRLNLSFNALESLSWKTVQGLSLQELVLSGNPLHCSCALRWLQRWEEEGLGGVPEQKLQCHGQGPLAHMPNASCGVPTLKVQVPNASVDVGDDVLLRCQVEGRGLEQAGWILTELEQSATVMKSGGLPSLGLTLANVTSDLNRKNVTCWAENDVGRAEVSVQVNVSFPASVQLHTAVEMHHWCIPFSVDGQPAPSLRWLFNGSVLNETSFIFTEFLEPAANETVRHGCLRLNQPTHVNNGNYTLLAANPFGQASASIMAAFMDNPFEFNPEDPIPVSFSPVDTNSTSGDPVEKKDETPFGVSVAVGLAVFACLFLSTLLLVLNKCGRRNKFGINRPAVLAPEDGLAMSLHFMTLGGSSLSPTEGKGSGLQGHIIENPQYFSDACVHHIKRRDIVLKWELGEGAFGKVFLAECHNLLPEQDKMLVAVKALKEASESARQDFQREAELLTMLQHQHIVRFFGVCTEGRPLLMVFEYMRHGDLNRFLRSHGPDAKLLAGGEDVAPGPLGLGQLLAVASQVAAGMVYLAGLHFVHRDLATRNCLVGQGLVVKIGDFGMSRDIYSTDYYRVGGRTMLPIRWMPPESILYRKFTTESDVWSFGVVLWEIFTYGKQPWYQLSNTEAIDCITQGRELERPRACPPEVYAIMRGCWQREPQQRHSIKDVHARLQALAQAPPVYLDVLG

COCCN1C[C@@H](NC(=O)Nc2c(C)c(-c3cncc(OC)c3)nn2-c2ccccc2)[C@H](c2ccc(F)c(F)c2)C1
IC50: < 100 nM

From ChEMBL document CHEMBL5726782, “N-pyrrolidinyl,N′-pyrazolyl-urea, thiourea, guanidine and cyanoguanidine compounds as TrkA kinase inhibitors” (2018)
